According to the NIST ThermoML archive (doi:10.1021/je060032n):
± gives the expanded uncertainty stated by the source.

Assay: refractive index (Na D-line) (dimensionless); xn = mol fraction of the nth substance listed
Settings: 101 kPa, Liquid, Standard Abbe refractometry

NCCNCCO [N-(2-aminoethyl)ethanolamine] + O showed a refractive index (298.15 K, x1 = 0.05) of 1.37012 ± 0.00044, a refractive index (298.15 K, x1 = 0.07) of 1.38204 ± 0.00039 and a refractive index (298.15 K, x1 = 0.1) of 1.39796 ± 0.00044. For the same compound, the refractive index (298.15 K, x1 = 0.2) was 1.43314 ± 0.00085, the refractive index (298.15 K, x1 = 0.3) was 1.45253 ± 0.00041 and the refractive index (298.15 K, x1 = 0.4) was 1.46321 ± 0.00034. It also gave a refractive index (298.15 K, x1 = 0.5) of 1.4703 ± 0.00038, a refractive index (298.15 K, x1 = 0.5996) of 1.47498 ± 0.00043 and a refractive index (298.15 K, x1 = 0.7011) of 1.47851 ± 0.00046. It also gave a refractive index (298.15 K, x1 = 0.8002) of 1.48101 ± 0.00048, a refractive index (298.15 K, x1 = 0.8979) of 1.48289 ± 0.0005 and a refractive index (298.15 K, x1 = 1) of 1.48454 ± 0.00052. It also gave a refractive index (303.15 K, x1 = 0.05) of 1.36931 ± 0.00045, a refractive index (303.15 K, x1 = 0.07) of 1.3811 ± 0.00043 and a refractive index (303.15 K, x1 = 0.1) of 1.39682 ± 0.00039. For the same compound, the refractive index (303.15 K, x1 = 0.2) was 1.4318 ± 0.00037, the refractive index (303.15 K, x1 = 0.3) was 1.45087 ± 0.00042 and the refractive index (303.15 K, x1 = 0.4) was 1.46158 ± 0.00045. The refractive index (303.15 K, x1 = 0.5) was 1.46857 ± 0.00047, the refractive index (303.15 K, x1 = 0.5996) was 1.47321 ± 0.00049 and the refractive index (303.15 K, x1 = 0.7011) was 1.47671 ± 0.00049. The refractive index (303.15 K, x1 = 0.8002) was 1.47918 ± 0.0005, the refractive index (303.15 K, x1 = 0.8979) was 1.48103 ± 0.00051 and the refractive index (303.15 K, x1 = 1) was 1.48269 ± 0.00053. It also gave a refractive index (313.15 K, x1 = 0.05) of 1.36749 ± 0.00046, a refractive index (313.15 K, x1 = 0.07) of 1.37909 ± 0.00043 and a refractive index (313.15 K, x1 = 0.1) of 1.39453 ± 0.00042. It also gave a refractive index (313.15 K, x1 = 0.2) of 1.4289 ± 0.00045, a refractive index (313.15 K, x1 = 0.3) of 1.44762 ± 0.00047 and a refractive index (313.15 K, x1 = 0.4) of 1.45811 ± 0.00048. The refractive index (313.15 K, x1 = 0.5) was 1.46502 ± 0.00049, the refractive index (313.15 K, x1 = 0.5996) was 1.46961 ± 0.00049 and the refractive index (313.15 K, x1 = 0.7011) was 1.47308 ± 0.0005. It also gave a refractive index (313.15 K, x1 = 0.8002) of 1.47552 ± 0.00051, a refractive index (313.15 K, x1 = 0.8979) of 1.47734 ± 0.00052 and a refractive index (313.15 K, x1 = 1) of 1.47884 ± 0.00053. It also gave a refractive index (323.15 K, x1 = 0.05) of 1.36542 ± 0.00046, a refractive index (323.15 K, x1 = 0.07) of 1.37696 ± 0.00043 and a refractive index (323.15 K, x1 = 0.1) of 1.39214 ± 0.00042. The refractive index (323.15 K, x1 = 0.2) was 1.42583 ± 0.00046, the refractive index (323.15 K, x1 = 0.3) was 1.44425 ± 0.00047 and the refractive index (323.15 K, x1 = 0.4) was 1.45463 ± 0.00048. The refractive index (323.15 K, x1 = 0.5) was 1.46146 ± 0.00049, the refractive index (323.15 K, x1 = 0.5996) was 1.46604 ± 0.0005 and the refractive index (323.15 K, x1 = 0.7011) was 1.46938 ± 0.00051. For the same compound, the refractive index (323.15 K, x1 = 0.8002) was 1.47177 ± 0.00051, the refractive index (323.15 K, x1 = 0.8979) was 1.47359 ± 0.00052 and the refractive index (323.15 K, x1 = 1) was 1.47516 ± 0.00053. It also gave a refractive index (333.15 K, x1 = 0.05) of 1.36367 ± 0.00052, a refractive index (333.15 K, x1 = 0.07) of 1.37507 ± 0.00045 and a refractive index (333.15 K, x1 = 0.1) of 1.38992 ± 0.00057. For the same compound, the refractive index (333.15 K, x1 = 0.2) was 1.42264 ± 0.00087, the refractive index (333.15 K, x1 = 0.3) was 1.44087 ± 0.00069 and the refractive index (333.15 K, x1 = 0.4) was 1.45107 ± 0.00058. The refractive index (333.15 K, x1 = 0.5) was 1.45777 ± 0.00055, the refractive index (333.15 K, x1 = 0.5996) was 1.46223 ± 0.00054 and the refractive index (333.15 K, x1 = 0.7011) was 1.4656 ± 0.00053. For the same compound, the refractive index (333.15 K, x1 = 0.8002) was 1.46805 ± 0.00053, the refractive index (333.15 K, x1 = 0.8979) was 1.46977 ± 0.00053 and the refractive index (333.15 K, x1 = 1) was 1.47128 ± 0.00054.
